Laboratory results published in patent US7138231B2 (priority 2000, dated 2006).

Assays:
[1] = test system: HIV-1 patient viruses with protease L90M; assay: Phenotypic susceptibility profiles of 333 patient virus samples with L90M (not 30 or 50); format: cell-based; details: for % with SQV FC > 2.5 / wt % > 2.5 / wt % > 10: L90M
[2] = test system: HIV-1 protease site-directed mutants (N88S, L63P, V77I, M46L) in resistance test vector; assay: Phenotypic susceptibility assay of resistance test vectors with site-directed mutations in PR
From the text: The resistance test vectors containing a functional luciferase gene cassette were constructed and host cells were transfected with the resistance test vector DNA. […] The resistance test vector viral particles produced by transfecting the resistance test vector DNA into host cells, either in the presence or absence of protease inhibitors, were used to infect target host cells grown either in the absence of NRTI or NNRTI or in the presence of increasing concentrations of the drug. Luciferase activity in infected target host cells in the presence of drug was compared to the luciferase activity in infected target host cells in the absence of drug. […] The IC50 values were determined by plotting percent drug inhibition vs. log10 drug concentration.
Host cells were seeded in 10-cm-diameter dishes and were transfected one day after plating with resistance test vector plasmid DNA and the envelope expression vector. Transfections were performed using a calcium-phosphate co-precipitation procedure. The cell culture media containing the DNA precipitate was replaced with fresh medium, from one to 24 hours, after transfection. Cell culture media containing resistance test vector viral particles was harvested one to four days after transfection and was passed through a 0.45-mm filter before being stored at −80° C. HIV capsid protein (p24) levels in the harvested cell culture media were determined by an EIA method as described by the manufacturer (SIAC; Frederick, Md.). Before infection, target cells (293 and 293/T) were plated in cell culture media. Control infections were performed using cell culture media from mock transfections (no DNA) or transfections containing the resistance test vector plasmid DNA without the envelope expression plasmid. One to three or more days after infection the media was removed and cell lysis buffer (Promega) was added to each well. Cell lysates were assayed for luciferase activity. The inhibitory effect of the drug was determined using the following equation: % luciferase inhibition=[1−(RLUluc[drug]RLUluc)]×100 where RLUluc [drug] is the relative light unit of luciferase activity in infected cells in the presence of drug and RLUluc is the Relative Light Unit of luciferase activity in infected cells in the absence of drug. IC50 values were obtained from the sigmoidal curves that were generated from the data by plotting the percent inhibition of luciferase activity vs. the log10 drug concentration.
Mutations are introduced into the resistance test vector through any of the widely known methods for site-directed mutagenesis. […] A resistance test vector containing the specific mutation or group of mutations are then tested using the phenotypic susceptibility assay described above and the susceptibility profile is compared to that of a genetically defined wild-type (drug susceptible) resistance test vector which lacks the specific mutations.
Resistance test vectors were constructed containing the N88S mutation alone and in combination with other substitutions in PR (L63P, V77I and M46L) known to modulate the HIV susceptibility to PRIs. Mutations were introduced into the resistance test vector using the mega-primer PCR method for site-directed mutagenesis.

[3] = test system: HIV-1; details: cited from earlier work
[4] = test system: HIV-1 variants with protease substitutions; details: both substitutions G48V-L90M; cited from earlier work
[5] = test system: HIV-1 patient-derived protease and reverse transcriptase segments (N88S in PR) in resistance test vectors; assay: Phenotypic drug susceptibility test with resistance test vectors from patient samples; format: cell-based; details: patient sample RTV-627
[6] = test system: HIV-1 patient viruses with protease L90M; assay: Phenotypic susceptibility profiles of 58 patient virus samples with L90M, no other primary mutations; format: cell-based; details: for % w with SQV FC > 2.5: L90M; for % FC > 2.5: SQV

Q: For `CC(C)(C)NC(=O)[C@@H]1C[C@@H]2CCCC[C@@H]2CN1C[C@@H](O)[C@H](Cc1ccccc1)NC(=O)[C@H](CC(N)=O)NC(=O)c1ccc2ccccc2n1` [saquinavir], which “% with SQV FC > 2.5” value ([1]; number of secondary mutations (weighted count) 0) is on record?
A: The value was 23.5%.

Q: And the “% with SQV FC > 2.5” value ([1]; number of secondary mutations (weighted count) 1)?
A: The value was 25.0%.

Q: What about the “% with SQV FC > 2.5” value ([1]; number of secondary mutations (weighted count) 2) of the same compound?
A: Its value is 69.4%.

Q: What about the “% with SQV FC > 2.5” value ([1]; number of secondary mutations (weighted count) 3) of the same compound?
A: The value was 85.7%.

Q: What about the “% with SQV FC > 2.5” value ([1]; number of secondary mutations (weighted count) 4) of the same compound?
A: Its value is 97.3%.

Q: And the “% with SQV FC > 2.5” value ([1]; number of secondary mutations (weighted count) 5)?
A: Its value is 100%.

Q: And the “% with SQV FC > 2.5” value ([1]; number of secondary mutations (weighted count) 6 or more)?
A: The value was 100%.

Q: And the “wt % > 2.5” value ([1]; Saquinavir FC>2.5, position 10 wild type)?
A: Its value is 56.4%.

Q: And the “wt % > 2.5” value ([1]; Saquinavir FC>2.5, position 20 wild type)?
A: The value was 73.9%.

Q: What about the “wt % > 2.5” value ([1]; Saquinavir FC>2.5, position 33 wild type) of the same compound?
A: Its value is 77.4%.

Q: And the “wt % > 2.5” value ([1]; Saquinavir FC>2.5, position 36 wild type)?
A: Its value is 74.9%.

Q: What about the “wt % > 2.5” value ([1]; Saquinavir FC>2.5, position 37 wild type) of the same compound?
A: The value was 76.4%.

Q: And the “wt % > 2.5” value ([1]; Saquinavir FC>2.5, position 48 wild type)?
A: Its value is 78.1%.

Q: What about the “wt % > 2.5” value ([1]; Saquinavir FC>2.5, position 53 wild type) of the same compound?
A: Its value is 77.3%.

Q: What about the “wt % > 2.5” value ([1]; Saquinavir FC>2.5, position 54 wild type) of the same compound?
A: Its value is 68.1%.

Q: And the “wt % > 2.5” value ([1]; Saquinavir FC>2.5, position 63 wild type)?
A: The value was 37.5%.

Q: What about the “wt % > 2.5” value ([1]; Saquinavir FC>2.5, position 64 wild type) of the same compound?
A: The value was 83.1%.

Q: And the “wt % > 2.5” value ([1]; Saquinavir FC>2.5, position 66 wild type)?
A: The value was 78.4%.

Q: And the “wt % > 2.5” value ([1]; Saquinavir FC>2.5, position 71 wild type)?
A: Its value is 58.0%.

Q: And the “wt % > 2.5” value ([1]; Saquinavir FC>2.5, position 73 wild type)?
A: The value was 73.6%.

Q: And the “wt % > 2.5” value ([1]; Saquinavir FC>2.5, position 84 wild type)?
A: The value was 70.7%.

Q: What about the “wt % > 2.5” value ([1]; Saquinavir FC>2.5, position 93 wild type) of the same compound?
A: Its value is 85.6%.

Q: What about the “mt % > 2.5” value ([1]; Saquinavir FC>2.5, listed as 90: all samples with L90M) of the same compound?
A: The value was 79.3%.

Q: What about the “wt % > 10” value ([1]; Saquinavir FC>10, position 10 wild type) of the same compound?
A: The value was 20.5%.

Q: What about the “wt % > 10” value ([1]; Saquinavir FC>10, position 20 wild type) of the same compound?
A: The value was 33.9%.

Q: What about the “wt % > 10” value ([1]; Saquinavir FC>10, position 23 wild type) of the same compound?
A: Its value is 42.4%.

Q: What about the “wt % > 10” value ([1]; Saquinavir FC>10, position 35 wild type) of the same compound?
A: Its value is 38.8%.

Q: What about the “wt % > 10” value ([1]; Saquinavir FC>10, position 36 wild type) of the same compound?
A: Its value is 34.2%.

Q: And the “wt % > 10” value ([1]; Saquinavir FC>10, position 48 wild type)?
A: Its value is 40.8%.

Q: And the “wt % > 10” value ([1]; Saquinavir FC>10, position 53 wild type)?
A: Its value is 39.8%.

Q: What about the “wt % > 10” value ([1]; Saquinavir FC>10, position 54 wild type) of the same compound?
A: The value was 32.8%.

Q: And the “wt % > 10” value ([1]; Saquinavir FC>10, position 58 wild type)?
A: The value was 41.6%.

Q: What about the “wt % > 10” value ([1]; Saquinavir FC>10, position 62 wild type) of the same compound?
A: The value was 38.5%.

Q: And the “wt % > 10” value ([1]; Saquinavir FC>10, position 64 wild type)?
A: The value was 46.1%.

Q: And the “wt % > 10” value ([1]; Saquinavir FC>10, position 71 wild type)?
A: The value was 29.0%.

Q: What about the “wt % > 10” value ([1]; Saquinavir FC>10, position 73 wild type) of the same compound?
A: Its value is 39.4%.

Q: And the “wt % > 10” value ([1]; Saquinavir FC>10, position 77 wild type)?
A: Its value is 49.5%.

Q: And the “wt % > 10” value ([1]; Saquinavir FC>10, position 84 wild type)?
A: The value was 24.9%.

Q: What about the “wt % > 10” value ([1]; Saquinavir FC>10, position 93 wild type) of the same compound?
A: The value was 50.7%.

Q: What about the “mt % > 10” value ([1]; Saquinavir FC>10, listed as 90: all samples with L90M) of the same compound?
A: The value was 43.5%.

Q: And the “Fold Change vs. reference” value ([2]; site-directed mutation N88S)?
A: Its value is 0.47 fold.

Q: And the “Fold Change vs. reference” value ([2]; site-directed mutations L63P)?
A: Its value is 1.04 fold.

Q: And the “Fold Change vs. reference” value ([2]; site-directed mutations L63P, N88S)?
A: The value was 1.44 fold.

Q: What about the “Fold Change vs. reference” value ([2]; site-directed mutations M46L, L63P, V77I, N88S) of the same compound?
A: The value was 1.45 fold.

Q: What about the “patients in whom resistant variants emerge” value ([3]; after 1 year of monotherapy with 1,800 mg daily) of the same compound?
A: The value was “approximately 45%”.

Q: And the frequency of resistance ([3]; combination therapy with zidovudine, zalcitabine, and saquinavir)?
A: Its frequency of resistance is 22%.

Q: What about the loss of susceptibility [4] of the same compound?
A: The loss of susceptibility was over 100 fold.

Q: What about the “change in susceptibility” value [5] of the same compound?
A: The value was “increase”.

Q: And the “% w with SQV FC > 2.5” value ([6]; number of secondary mutations 0)?
A: The value was 53%.

Q: And the “% w with SQV FC > 2.5” value ([6]; number of secondary mutations 1)?
A: The value was 47%.

Q: And the “% w with SQV FC > 2.5” value ([6]; number of secondary mutations 2)?
A: The value was 43%.

Q: And the “% w with SQV FC > 2.5” value ([6]; number of secondary mutations 3)?
A: The value was 68%.

Q: What about the “% w with SQV FC > 2.5” value ([6]; number of secondary mutations 4) of the same compound?
A: The value was 77%.

Q: And the “% w with SQV FC > 2.5” value ([6]; number of secondary mutations 5)?
A: Its value is 100%.

Q: What about the “% w with SQV FC > 2.5” value ([6]; number of secondary mutations 6) of the same compound?
A: Its value is 100%.

Q: What about the “% FC > 2.5” value ([6]; L90M + mutation at position 10) of the same compound?
A: Its value is 65%.

Q: And the “% FC > 2.5” value ([6]; L90M + mutation at position 71)?
A: Its value is 78%.

Q: What about the “% FC > 2.5” value ([6]; L90M + mutation at position 71, listed as SQV) of the same compound?
A: The value was 78%.

Q: And the “% FC > 2.5” value ([6]; L90M + mutation at position 73)?
A: Its value is 79%.

Q: What about the “% FC > 2.5” value ([6]; L90M + mutation at position 73, listed as SQV) of the same compound?
A: Its value is 79%.

Q: And the “% FC > 2.5” value ([6]; L90M + mutation at position 77)?
A: The value was 76%.

Q: And the “% FC > 2.5” value ([6]; listed as 90: all viruses with L90M)?
A: The value was 55%.
